The source of these data is PubChem BioAssay (NCI).

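Compound exposure: 48 hours, 5 concentrations, 96-well plates. TGI is the concentration that stops growth completely.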

Test systems include A549 NSCLC; ACHN renal; HCC-2998 colon; HT29 colon; K-562 leukemia; NCI-H23 lung; NCI-H460 lung; OVCAR-5 ovarian; SK-OV-3 ovarian; SNB-75 CNS; SR leukemia; UACC-62 melanoma; SF-539 CNS; HOP-92 NSCLC.
Holding throughout (assay): DTP human tumour cell line panel, 48 h

Turning to `CC1(C)CC(=O)CC(=Nc2ccc([N+](=O)[O-])cc2)C1`, the TGI in the experiment with A549 NSCLC, with ACHN renal, in the experiment on HCC-2998 colon, in the experiment with HT29 colon, with K-562 leukemia and with NCI-H23 lung was > 100 µM in each case. Further, the TGI – broadly, the concentration giving total growth inhibition – is > 100 µM with NCI-H460 lung; > 100 µM in the experiment on OVCAR-5 ovarian; > 100 µM in the experiment with SK-OV-3 ovarian; > 100 µM with SNB-75 CNS; 88.5 µM in the experiment on SR leukemia; > 100 µM in the experiment on UACC-62 melanoma.
As to `CS(=O)(=O)c1ccc(-c2cc(-c3ccc(S(C)(=O)=O)cc3)[n+](-c3cc(-c4ccccc4)c([O-])c(-c4ccccc4)c3)c(-c3ccc(S(C)(=O)=O)cc3)c2)cc1`, the TGI in the experiment on A549 NSCLC, in the experiment with ACHN renal, in the experiment on HCC-2998 colon, in the experiment with HT29 colon, with K-562 leukemia and with NCI-H23 lung was > 100 µM in each case. The TGI in the experiment with NCI-H460 lung, in the experiment on OVCAR-5 ovarian, with SF-539 CNS, in the experiment with SR leukemia and in the experiment on UACC-62 melanoma was > 100 µM throughout.
Consider `COC(=O)C(C(=O)Cc1ccccc1[N+](=O)[O-])C(=O)OC`, for which the TGI with A549 NSCLC, in the experiment on ACHN renal, in the experiment on HCC-2998 colon, in the experiment on HOP-92 NSCLC, in the experiment on HT29 colon and in the experiment on NCI-H23 lung was > 100 µM throughout. The TGI in the experiment with NCI-H460 lung, in the experiment with SF-539 CNS, in the experiment with SK-OV-3 ovarian, in the experiment with SNB-75 CNS, with SR leukemia and in the experiment with UACC-62 melanoma was > 100 µM throughout.
With `Cc1ccc(NC(=O)CCc2nnc(N)o2)cc1`, the TGI in the experiment on A549 NSCLC, in the experiment on ACHN renal, with HCC-2998 colon, in the experiment on HOP-92 NSCLC, in the experiment on HT29 colon and with K-562 leukemia was > 100 µM each time. In addition, the TGI with NCI-H23 lung, in the experiment on NCI-H460 lung, in the experiment with OVCAR-5 ovarian, in the experiment with SF-539 CNS, in the experiment on SK-OV-3 ovarian and in the experiment on SNB-75 CNS was > 100 µM in each case. Moreover, the TGI with UACC-62 melanoma was > 100 µM.
With `O=[N+]([O-])c1ccc(-c2cnc3ccccn23)cc1`, the TGI in the experiment on A549 NSCLC, in the experiment with ACHN renal, with HT29 colon, in the experiment on K-562 leukemia, in the experiment with NCI-H23 lung and in the experiment on NCI-H460 lung was > 100 µM each time. The TGI in the experiment with OVCAR-5 ovarian was > 100 µM; with SF-539 CNS, > 100 µM; with SK-OV-3 ovarian, > 100 µM; in the experiment on SNB-75 CNS, 92 µM; with SR leukemia, > 100 µM; in the experiment with UACC-62 melanoma it was > 100 µM.
As for `C=CN1C(=O)[C@H](Oc2ccccc2)[C@@H]1c1ccccc1`, the TGI in the experiment with A549 NSCLC is 85 µM; in the experiment with ACHN renal it was > 100 µM; with HCC-2998 colon, > 100 µM; with HT29 colon, 69.4 µM; in the experiment with K-562 leukemia it was > 100 µM; with NCI-H23 lung, 60 µM. In addition, the TGI in the experiment on NCI-H460 lung was > 100 µM; with OVCAR-5 ovarian, > 100 µM; in the experiment with SF-539 CNS, 31.1 µM; in the experiment on SK-OV-3 ovarian it was 78.8 µM; with SNB-75 CNS, 61.8 µM; in the experiment with SR leukemia, > 100 µM.
For the compound `Cc1nn(C(=O)CC(=O)Nc2ccc(Cl)cc2)c(C)c1N=Nc1ccccc1C(=O)O`, the TGI with A549 NSCLC, in the experiment with HCC-2998 colon, with HT29 colon, in the experiment with K-562 leukemia, with NCI-H23 lung and with NCI-H460 lung was > 100 µM each time. Moreover, the TGI in the experiment on OVCAR-5 ovarian, in the experiment on SF-539 CNS, in the experiment with SK-OV-3 ovarian, in the experiment on SNB-75 CNS and in the experiment with UACC-62 melanoma was > 100 µM in each case.
Turning to `CN(CCN(C)C(=O)CCn1cc(F)c(=O)[nH]c1=O)C(=O)CCn1cc(F)c(=O)[nH]c1=O`, the TGI in the experiment with A549 NSCLC, with ACHN renal, in the experiment on HCC-2998 colon, with HT29 colon, with K-562 leukemia and in the experiment with NCI-H23 lung was > 100 µM each time. The TGI with NCI-H460 lung, in the experiment with OVCAR-5 ovarian, in the experiment on SF-539 CNS, in the experiment with SNB-75 CNS, with SR leukemia and in the experiment on UACC-62 melanoma was > 100 µM in each case.
Turning to `Cn1c2ccccc2c2ncc3[nH]c4ccccc4c3c21`, the concentration for total growth inhibition (TGI) with A549 NSCLC is 49.6 µM; in the experiment with ACHN renal, 54.9 µM; in the experiment with HCC-2998 colon, > 100 µM; with HOP-92 NSCLC it was 56.8 µM; in the experiment with HT29 colon, 31.1 µM; with K-562 leukemia, 95.5 µM. Also, the TGI with NCI-H23 lung was 43.7 µM; in the experiment on NCI-H460 lung it was 32.2 µM; in the experiment on OVCAR-5 ovarian, 47.8 µM; in the experiment on SF-539 CNS, 32.4 µM; with SK-OV-3 ovarian it was 80.8 µM; in the experiment on SNB-75 CNS, 35.6 µM. Further, the total growth inhibition concentration (TGI) in the experiment with UACC-62 melanoma was determined as 41.7 µM.
Regarding `CCOC(=O)C1SC(=Nc2ccccc2)N=C1C` (stereo not drawn), the TGI is > 100 µM with A549 NSCLC; > 100 µM with ACHN renal; > 100 µM in the experiment on HCC-2998 colon; 88.8 µM in the experiment with HOP-92 NSCLC; > 100 µM in the experiment with HT29 colon; > 100 µM with K-562 leukemia. In addition, the TGI in the experiment with NCI-H23 lung was > 100 µM; with NCI-H460 lung, > 100 µM; in the experiment on OVCAR-5 ovarian, > 100 µM; in the experiment with SF-539 CNS, > 100 µM; in the experiment with SNB-75 CNS, 88.7 µM; with SR leukemia, > 100 µM.
Regarding `CCOC1c2cc(C(C)C)c(O)c(O)c2[C@@]23CCCC(C)(C)C2C1OC3=O` (stereo partly drawn), the total growth inhibition concentration (TGI) with A549 NSCLC, with ACHN renal, in the experiment with HCC-2998 colon, with HT29 colon, in the experiment with K-562 leukemia and in the experiment with NCI-H23 lung was > 100 µM each time. For the same compound, the TGI in the experiment with NCI-H460 lung, in the experiment with OVCAR-5 ovarian, with SF-539 CNS, in the experiment on SK-OV-3 ovarian, in the experiment with SNB-75 CNS and in the experiment on SR leukemia was > 100 µM throughout. Also, the TGI in the experiment on UACC-62 melanoma is > 100 µM.
